Laboratory results published in patent US10028961B2, “Therapeutically active compounds and their methods of use” (AGIOS PHARMACEUTICALS, INC., priority 2013, dated 2018).

Legend:
[1] = test system: Neurosphere cells (TS603); assay: Cellular assay for IDH1m R132H inhibitors, 2-HG by LC-MS in neurosphere cells (TS603); assay type: cell-based; conditions: 2-HG in media at 48 hours
Outline: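 TS603 neurosphere cells in NeuroCult medium were dosed with compound (0.25% DMSO final) at 37 C, 5% CO2. After 48 hours, medium 2-HG was measured by LC-MS. At 72 hours, viability was read by CellTiter-Glo luminescence.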

[2] = target: IDH1-R132H homodimer enzyme (Homo sapiens (Human), UniProt O75874, R132H); assay: In vitro assay IDH1-R132H homodimer, NADPH depletion assay with NADPH/NADP preincubation; assay type: biochemical; conditions: 5 μM NADPH and 37.5 μM NADP
Outline: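 Compounds were added from DMSO at 50× final concentration, and the mutant enzyme was incubated 60 min at room temperature after starting with a substrate mix holding NADPH and 5 mM alpha-ketoglutarate. Residual cofactor, read by fluorescence after excess diaphorase and resazurin, reflects enzyme turnover.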

HT1080 cells = assay: Cellular assay for IDH1m R132C inhibitors, 2-HG by LC-MS in HT1080 cells; assay type: cell-based; conditions: Homo sapiens, HT-1080
Outline: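 2-HG levels were measured by LC-MS in culture medium sampled 48 h after compound addition (0.2% DMSO) to HT1080 cells seeded overnight at 5000 cells/well. A CellTiter-Glo luminescence read at 72 h gave cell viability.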

[3] = target: IDH1-R132C homodimer enzyme (Homo sapiens (Human), UniProt O75874, R132C); assay: In vitro assay IDH1-R132C homodimer, NADPH depletion assay with NADPH/NADP preincubation; assay type: biochemical; conditions: 5 uM NADPH and 28.75 uM NADP, read-out: IDH R132C NADPH/NADP IC50
IDH1-R132C homodimer enzyme, sequence (O75874 whole entry R132C): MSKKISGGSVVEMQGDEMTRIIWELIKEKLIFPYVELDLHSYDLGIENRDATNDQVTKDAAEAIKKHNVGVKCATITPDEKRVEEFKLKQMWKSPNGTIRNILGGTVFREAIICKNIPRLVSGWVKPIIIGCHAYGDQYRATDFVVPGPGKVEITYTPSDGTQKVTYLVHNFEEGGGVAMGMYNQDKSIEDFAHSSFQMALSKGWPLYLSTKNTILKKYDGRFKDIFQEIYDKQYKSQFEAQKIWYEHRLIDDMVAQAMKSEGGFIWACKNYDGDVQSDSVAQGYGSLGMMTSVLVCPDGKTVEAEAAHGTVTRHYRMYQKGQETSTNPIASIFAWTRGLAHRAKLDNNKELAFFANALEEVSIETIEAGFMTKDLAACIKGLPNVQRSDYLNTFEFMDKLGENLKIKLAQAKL

IDH1-R132H homodimer enzyme, sequence (O75874 whole entry R132H): as the sequence (O75874 whole entry R132C) above, with C132H counted along it

| IC50 [1] | IC50 [2] | IC50 (HT1080 cells) | IC50 [3] | SMILES |
| --- | --- | --- | --- | --- |
| < 50 nM | 50 to 100 nM | 100 to 1000 nM | 100 to 1000 nM | FC1(F)CCC(Nc2nc(Nc3ccnc(C(F)(F)F)c3)nc(-c3cncc(C(F)(F)F)n3)n2)CC1 [Compound 389] |
| < 50 nM | < 50 nM | 100 to 1000 nM | 100 to 1000 nM | N#CC1(c2cc(Nc3nc(NC4CC(F)(F)C4)nc(-c4cncc(C(F)(F)F)n4)n3)ccn2)CC1 [Compound 401] |
